According to patent publication US9765017B2, “Allosteric hemoglobin modifiers with nitric oxide releasing moiety” (VIRGINIA COMMONWEALTH UNIVERSITY, priority 2013, dated 2017):

Legend:
Hb = target: T1, Hb (Homo sapiens, UniProt P68871+P69905); test: Effect on Hb affinity for oxygen (oxygen equilibrium curve study) using normal whole blood; type: cell-based; conditions: 2 mM compound; for ΔP50: versus DMSO control, whole blood; for N (Hill coefficient) / P50: whole blood (Hct ~29%), 37° C.
T1 construct: Normal whole blood used in some of the functional assays was collected from adult donors; from tissue; host or cells: normal human whole blood (red cells) from adult donors
Description: RSR-13 is an allosteric effector of Hb that acts by decreasing Hb affinity for O2, and as a result allows release of more O2 to tissues.^26 In this study, a nitrate ester moiety was incorporated onto RSR-13. It was proposed that, in vivo, the NO will cleave off, resulting in the parent compound and free NO, the former acting as right-shifter of the oxygen equilibrium curve while the latter is released into the vasculature. The following describe the synthesis of three nitrate esters of RSR-13, including DD-1, DD-2 and DD-3 (FIGS. 1-3). Other NO containing RSR-13 derivatives, such as those referenced above may be synthesized according to the same or similar processes. Normal whole blood used in some of the functional assays was collected from adult donors at the Virginia Commonwealth University after informed consent. Hb used for structural studies was purified from discarded normal blood samples. The use of these human samples is in accordance with regulations of the IRB for Protection of Human Subjects.
The effect of DD-1 on Hb affinity for oxygen was studied using whole blood with RSR-13 as a positive control. Solution of DD-1 and RSR-13 was added to 2 mL of whole blood (Hemocrit of ˜29%) to make a final drug concentration of 2 mM. Time-dependent studies were carried out at various time points (ranging from 1 h to 12 h) at 37° C. Briefly, blood-drug mixture samples at various time points were incubated in IL 237 tonometer (Instrumentation Laboratories, Inc., Lexington, Mass.) for about 5-7 min at 37° C. against gas mixture containing O2 concentrations of 0.804%, 2.935% and 8.785% and allowed to equilibrate at O2 tensions of 6, 20, 60 mmHg, respectively. After equilibration, the sample was removed via syringe and aspirated into a ABL 700 series table top automated blood gas analyzer (Radiometer America, Inc., Westlake, Ohio) to determine total hemoglobin (tHb), hematocrit (Hct), pH, pCO2, partial pressure of oxygen (pO2), and the Hb oxygen saturation values (sO2). The measured values of pO2 and sO2 at each oxygen saturation level were then subjected to a non-linear regression analysis using the program Scientist (Micromath, Salt Lake City, Utah) with the following equation:
[formula] This equation was used to calculate P50 and Hill coefficient (N) values. Corresponding control experiments without the test compound (P50control) but containing DMSO were also performed.

[1] = Griess assay of nitric oxide release (quantitated as NO2- release); type: physicochemical; conditions: 2 mM solution in 0.1 M phosphate buffer pH 7.4 mixed with 36 mM L-cysteine, 37° C., anaerobic
Procedure: A Griess assay was used to measure the NO releasing ability of DD-1 following literature procedures.^29-31 Solution of the test compound (1 mL of a 2 mM solution in 0.1 M phosphate buffer (pH 7.4)) was mixed thoroughly with a freshly prepared solution of L-cysteine (1 mL of a 36 mM solution in 0.1 M phosphate buffer, pH 7.4), and incubated at 37° C. for 1 and 16 h under anaerobic conditions. After exposure to air for 10 min at 25° C., an aliquot of the Griess reagent (1 mL) [freshly prepared by mixing equal volumes of 1.0% sulfanilamide (prepared and stored in aqueous 5% phosphoric acid) and 0.1% N-naphthylethylenediamine dihydrochloride in water] was added to equal volume (1 mL) of each incubation solution after mixing. After 10 min, absorbance was measured at 540 nm using a Hewlett Packard (Agilent) 8453 UV-visible Spectroscopy. NaNO2 solutions of 1-100 μM concentrations were used to prepare a standard nitrite curve of absorbance (nm) versus concentration (μM), and the NO released by DD-1 (quantitated as NO2^−release in μM) was calculated from the standard nitrite curve by extrapolation of the absorbance.

[2] = Stability of DMSO stock solution checked by UPLC-MS; type: physicochemical; conditions: 100 μM in DMSO, 3 months at −20° C., at least 6 freeze-thaw cycles
Procedure: The stability of nitrate esters was checked by performing UPLC-MS on a previously prepared stock solution of DD-1. A 100 μM stock solution was prepared in DMSO and stored for 3 months at −20° C. during which time it was exposed to at least 6 freeze-thaw cycles.

T1 sequence (P69905 2-142 limits assumed): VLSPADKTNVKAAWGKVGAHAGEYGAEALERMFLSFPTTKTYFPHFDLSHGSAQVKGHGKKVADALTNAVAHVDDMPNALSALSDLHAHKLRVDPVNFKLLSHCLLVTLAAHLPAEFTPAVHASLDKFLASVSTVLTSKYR
T1 sequence (P68871 2-147 limits assumed): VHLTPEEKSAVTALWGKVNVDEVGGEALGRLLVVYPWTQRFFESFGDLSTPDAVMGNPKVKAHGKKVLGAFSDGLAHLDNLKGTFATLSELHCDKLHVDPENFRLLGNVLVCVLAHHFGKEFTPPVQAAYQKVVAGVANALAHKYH

ΔP50 (Hb; incubation time 1 h)	ΔP50 (Hb; incubation time 2 h)	ΔP50 (Hb; incubation time 4 h)	ΔP50 (Hb; incubation time 8 h)	ΔP50 (Hb; incubation time 12 h)	N (Hill coefficient) (Hb; incubation time 1 h)	P50 (Hb; incubation time 1 h)	N (Hill coefficient) (Hb; incubation time 2 h)	P50 (Hb; incubation time 2 h)	N (Hill coefficient) (Hb; incubation time 4 h)	P50 (Hb; incubation time 4 h)	N (Hill coefficient) (Hb; incubation time 8 h)	P50 (Hb; incubation time 8 h)	N (Hill coefficient) (Hb; incubation time 12 h)	P50 (Hb; incubation time 12 h)	Stability of stock solution [2]	Compound	NO2- release after 1 hour ([1]; 1 h incubation)	NO2- release after 16 hours ([1]; 16 h incubation)
15.3 mmHg	15.0 mmHg	16.1 mmHg	16.9 mmHg	15.6 mmHg	1.8	47.8 mmHg	1.9	47.9 mmHg	1.8	49.7 mmHg	1.8	51.8 mmHg	1.9	52.6 mmHg	–	Cc1cc(C)cc(NC(=O)Cc2ccc(OC(C)(C)C(=O)O)cc2)c1 [RSR-13, 2-[4-[2-[(3,5-dimethylphenyl)amino]-2-oxoethyl]phenoxy]-2-methylpropanoic acid, reference compound]	–	–
3.2 mmHg	6.3 mmHg	16.3 mmHg	25.4 mmHg	27.8 mmHg	2.3	35.7 mmHg	2.1	39.2 mmHg	1.9	49.9 mmHg	1.7	60.3 mmHg	1.7	64.8 mmHg	stable	Cc1cc(C)cc(NC(=O)Cc2ccc(OC(C)(C)C(=O)OCCO[N+](=O)[O-])cc2)c1 [DD-1, 2-(Nitrooxy)ethyl 2-(4-(2-((3,5-dimethylphenyl)amino)-2-oxoethyl)phenoxy)-2-methylpropanoate]	9.61 µM	5.35 µM
